Assay results: patent publication US5677296A, “Carbamic acid derivatives of substituted dibenzoxazepine compounds, pharmaceutical compositions and methods of use” (G.D. Searle & Co., priority 1995, dated 1997)

What was measured:
[1] = system: prostaglandin E2-induced contractions of guinea pig ileum; test: Prostaglandin (PGE) Antagonism Assay (inhibition of prostaglandin E2-induced contractions of segments of guinea pig ileum); details: test compound 3 × 10^-6 M, 30 min incubation; dose ratio of PGE2 EC50 values; average where more than one determined
Description: (b) Prostaglandin (PGE) Antagonism Assay
In order to determine the effectiveness of several of the compounds of the present invention ("test compounds") as prostaglandin E2 antagonists,a prostaglandin antagonism assay was conducted, as described below, to determine the ability of these compounds to inhibit prostaglandin E2 -induced contractions of segments of guinea pig ileum.
Male albino guinea pigs weighing 200 to 500 grams were sacrificed by cervical dislocation. The ilea were then quickly removed from the guinea pigs and placed in a modified Tyrode solution, a solution which is known to those skilled in the art, containing one-half of the usual amount of magnesium ions.
Segments of ileum about 2 cm long were then cut and mounted in a 10 mL tissue bath containing the modified Tyrode solution. The solution was maintained at 37° C. and aerated with a gaseous mixture of 95% oxygen and 5% carbon dioxide. Data for a control prostaglandin E2 dose response curve plotting concentration of prostaglandin E2 versus the intensity of contractions, detected isotonically, was then obtained by experimentally adjusting the dose of the prostaglandin E2 being injected into the tissue bath, in a manner known by those of skill in the art.
Solutions or suspensions containing an initial concentration (3 micromolar) of a test compound in modified Tyrode solution ("test solutions/suspensions") were then separately substituted for the control bath solution. Each test solution/suspension was then kept in constant contact with the ileum tissue, except for brief periods to drain the bath in preparation for rinsing with fresh test solution/suspension. A second prostaglandin E2 dose response curve was then generated for prostaglandin E2 in the presence of a test compound.
A control dose response curve is produced in isolated segments of guinea pig ileum mounted in an automated apparatus with six concentrations of prostaglandin E2. A solution or suspension of test compound is substituted for the control bathing solution and is incubated for thirty minutes. An additional prostaglandin E2 dose response curve is then performed in the presence of the test compound. A dose ratio is calculated from the EC50 values obtained from duplicate replications on each concentration of the test compound.
A dose ratio of EC50 doses was calculated from the results of each test in a manner known by those of skill in the art, and described above.
The dose ratios reported in Table 1 represent an average of multiple dose ratios for those compounds for which more than one dose ratio was determined. The compounds of the present invention which were tested in this assay, and for which results are presented in Table 1, correspond to the particular examples specified in Table 1.
The pA2 value (a statistical constant which is a common measure of expressing the potency of a particular drug as a competitive antagonist), rather than the dose ratio, was calculated for the test compound shown and described in Example 6 by schild plot calculations, as described by H. O. Schild, "pA, A New Scale for the Measurement of Drug Antagonism," Br. J. Pharmacol, 2, 189 (1947), and is reported in Table 1.

[2] = system: phenylbenzoquinone (PBQ)-induced writhing in mice; test: Writhing Assay (PBQ-induced writhing in mice, analgesic activity); type: in vivo, mouse (Charles River male albino mice); details: i.g.; for Writhing assay: number of mice out of eight or ten in which test compound produced analgesia: 30 mpk, 30 min before PBQ i.p., fraction of mice
Source text: The Writhing Assay is one of the most widely-used experimental procedures for measuring the analgesic activity of different narcotic and nonnarcotic analgesic agents, and involves the continuous, chemically-induced pain of visceral origin to an animal, such as a mouse or rat. [Gyires et al., Arch. int. Pharmacodyn, 267, 131-140 (1984); C. Vander Wende et al., Fed. Proc., 15, 494 (1956); Koster et al., Fed. Proc., 18, 412 (1959); and Witken et al., J. Pharmacol. exp. Ther., 133, 400-408 (1961).] Chemicals which may be used to induce this pain include phenylbenzoquinone (PBQ) and acetic acid. As a result of the chemical irritation to the animal, a characteristic stretching and writhing of the animal (dorsiflexion of the animal's back, extension of its hindlimbs and the strong contraction of its abdominal musculature) will generally occur. […] Drugs which reduce the number of writhes of the animal appear to restore the normal nociceptive threshold of the animal.
Charles River male albino mice, weighing 20 to 30 grams, were used in this assay.
Thirty minutes after intragastric administration to ten mice of 30 mg per kilogram of body weight of a compound of the present invention ("test compound"), […] per 10 g of body weight of a 0.025% w/v solution of PBQ was injected intraperitoneally into each mouse. Ten mice which were given saline in place of a test compound of the invention were used as a control group.
Five minutes later, each mouse was individually placed into a glass beaker for observation, and the number of writhes occurring during the following ten-minute period was counted.
A test compound was considered to have produced analgesia in a mouse if, in accordance with the conditions set forth above, and under the test criteria employed for this assay, after the administration of 30 mg per kilogram of body weight of a compound of the present invention to the mouse, the number of writhes elicited by a mouse injected with PBQ was equal to, or less than, one-half the median number of writhes recorded for the saline-treated control group of mice that day, as described by Taber in "Predictive Value of Analgesic Assays in Mice and Rats," Advances in Biochemical Psychopharmacology, 8, 191 (1974).
The results for the particular compounds of the present invention analyzed in this assay, and discussed in the examples identified below which correspond thereto, are presented in Table 1 hereinbelow as fractions under the heading "WRITHING ASSAY." The fractions indicate the number of mice out of eight or ten in which a test compound produced analgesia.
The standard initial screening dose of a test compound employed in this assay was 30 mpk […]. Generally, if this initial screening dose of the test compound produced analgesia in seven out of ten mice, then the effect of additional doses of the test compound on the writhing response was evaluated, and then the ED50 dose was generally calculated. (The slopes of the dose-response curves for all test compounds analyzed were compared as described by Tallarida and Murray, Manual of Pharmacologic Calculations, Page 11 (Springer Verlag, New York, 1981)).
All ED50 doses calculated are also presented in Table 1 hereinbelow under the heading "WRITHING ASSAY," but as whole numbers.

## O=C1OC(c2ccncc2)c2c(Cl)ccc3c2N1Cc1ccccc1O3 (single isomer, unassigned; (-)) [Compound 5b, (-)-4-chloro-3-(4-pyridyl)-1H,3H,12H-[3,1]-benzoxazino[8,1-b,c][1, 4]benzoxazepin-1-one]
[1]
  PGE2 antagonism in guinea pig ileum: Dose Ratio at 3 × 10^-6 M: 80.5
[2]; 30 mg/kg
  Writhing assay: number of mice out of eight or ten in which test compound produced analgesia: 4/10

## O=C1OC(c2ccccc2)c2c(Cl)ccc3c2N1Cc1ccccc1O3 (stereo not shown) [Compound 2, 4-chloro-3-phenyl-1H,3H,12H-[3,1]-benzoxazino[8,1-b,c][1,4]benzoxazepin-1-one]
[1]
  PGE2 antagonism in guinea pig ileum: Dose Ratio at 3 × 10^-6 M: 29.2
[2]
  Writhing assay: number of mice out of eight or ten in which test compound produced analgesia: 1/10

## O=C1OC(c2ccncc2)c2c(Cl)ccc3c2N1Cc1ccccc1O3 (stereo not shown) [Compound 5, 4-chloro-3-(4-pyridyl)-1H,3H,12H-[3,1]-benzoxazino-[8,1-b,c][1,4]benzoxazepin-1-one]
[1]
  PGE2 antagonism in guinea pig ileum: Dose Ratio at 3 × 10^-6 M: 10.93
[2]
  Writhing assay: number of mice out of eight or ten in which test compound produced analgesia: 10/10
[2]; Mus musculus, PBQ i.p., read-out: Writhing assay: ED50 Dose (I.G.)
  ED50: 3.7 mg/kg

## O=C1O[C@@H](c2ccncc2)[C@H]2c3ccccc3Oc3ccc(Cl)cc3N12 [Compound 6a, (+)-trans-6-chloro-1,13b-dihydro-1-(4-pyridyl)-3H-dibenz[b,f]oxazolo[3,4-d][1,4]oxazepin-3-one]
[1]
  PGE2 antagonism in guinea pig ileum: Dose Ratio at 3 × 10^-6 M: 23.4
[2]; 30 mg/kg
  Writhing assay: number of mice out of eight or ten in which test compound produced analgesia: 2/10

## O=C1O[C@@H](c2ccncc2)[C@H]2c3ccccc3Oc3ccc(Cl)cc3N12 [Compound 6b, (-)-trans-6-chloro-1,13b-dihydro-1-(4-pyridyl)-3H-dibenz[b,f]oxazolo[3,4-d][1,4]oxazepin-3-one]
[1]
  PGE2 antagonism in guinea pig ileum: Dose Ratio at 3 × 10^-6 M: 2.7
[2]; 30 mg/kg
  Writhing assay: number of mice out of eight or ten in which test compound produced analgesia: 6/10

## O=C1OC(c2ccccn2)C2c3ccccc3Oc3ccc(Cl)cc3N12 (stereo not shown) [Compound 10, 6-chloro-1,13b-dihydro-1-(2-pyridyl)-3H-dibenz-[b,f]oxazolo[3,4-d][1,4]oxazepin-3-one]
[1]
  PGE2 antagonism in guinea pig ileum: Dose Ratio at 3 × 10^-6 M: 28.94
[2]
  Writhing assay: number of mice out of eight or ten in which test compound produced analgesia: 1/10
